Measurements taken from PubChem BioAssay (NCI).
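Cells were grown in 96-well plates and exposed to each compound for 48 hours at five concentrations; endpoints were interpolated linearly between bracketing concentrations, or set to the highest concentration if not reached. TGI: concentration producing complete growth inhibition.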

Tests used:
Experiment in all cases: growth of human tumour cells (NCI), 48 h
[1] = tested on: HCC-2998 colon
[2] = tested on: UO-31 renal
[3] = tested on: CCRF-CEM leukemia
[4] = tested on: OVCAR-4 ovarian
[5] = tested on: OVCAR-3 ovarian
[6] = tested on: SK-OV-3 ovarian
[7] = tested on: NCI-H226 lung
[8] = tested on: SW-620 colon
[9] = tested on: SF-268 CNS
[10] = tested on: COLO 205 colon
[11] = tested on: HT29 colon
[12] = tested on: SNB-78 CNS
[13] = tested on: HOP-62 NSCLC
[14] = tested on: MOLT-4 leukemia
[15] = tested on: TK-10 renal
[16] = tested on: OVCAR-5 ovarian
[17] = tested on: RPMI-8226 leukemia
[18] = tested on: NCI-H522 lung
[19] = tested on: RXF 393 renal
[20] = tested on: UACC-257 melanoma
[21] = tested on: SN12C renal
[22] = tested on: SK-MEL-5 melanoma
[23] = tested on: A498 renal
[24] = tested on: KM12 colon
[25] = tested on: U251 CNS
[26] = tested on: UACC-62 melanoma
[27] = tested on: ACHN renal
[28] = tested on: IGROV1 ovarian
[29] = tested on: SNB-19 CNS
[30] = tested on: SK-MEL-28 melanoma
[31] = tested on: A549 NSCLC
[32] = tested on: RXF-631 renal
[33] = tested on: DMS 114 small cell lung
[34] = tested on: SK-MEL-2 melanoma
[35] = tested on: HCT-15 colon
[36] = tested on: DLD-1 colon
[37] = tested on: M19-MEL melanoma
[38] = tested on: OVCAR-8 ovarian
[39] = tested on: DMS 273 small cell lung
[40] = tested on: HOP-18 NSCLC
[41] = tested on: MALME-3M melanoma
[42] = tested on: CAKI-1 renal
[43] = tested on: LXFL 529 NSCLC
[44] = tested on: 786-0 renal
[45] = tested on: KM20L2 colon
[46] = tested on: SF-539 CNS
[47] = tested on: SNB-75 CNS
[48] = tested on: K-562 leukemia
[49] = tested on: HCT-116 colon
[50] = tested on: NCI-H460 lung
[51] = tested on: M14 melanoma
[52] = tested on: HOP-92 NSCLC
[53] = tested on: LOX IMVI melanoma
[54] = tested on: XF 498 CNS
[55] = tested on: NCI-H23 lung
[56] = tested on: EKVX NSCLC
[57] = tested on: HL-60(TB) leukemia
[58] = tested on: SR leukemia
[59] = tested on: SF-295 CNS

COC(=O)c1ccccc1NC(=O)C(=O)Cc1nc2c3c(ccc2[nH]c1=O)C(=O)c1ccccc1C3=O
TGI [1]: 43 µM
TGI [2]: > 100 µM
TGI [3]: > 100 µM
TGI [4]: 98 µM
TGI [5]: > 100 µM
TGI [6]: > 100 µM
TGI [7]: 16.7 µM
TGI [8]: 55.7 µM
TGI [9]: 67.9 µM
TGI [10]: > 100 µM
TGI [11]: > 100 µM
TGI [12]: > 100 µM
TGI [13]: 39.1 µM
TGI [14]: 99.6 µM
TGI [15]: 96.4 µM
TGI [16]: > 100 µM
TGI [17]: > 100 µM
TGI [18]: 35.7 µM
TGI [19]: 26.3 µM
TGI [20]: 62.8 µM
TGI [21]: > 100 µM
TGI [22]: 13.6 µM
TGI [23]: > 100 µM
TGI [24]: > 100 µM
TGI [25]: 35.9 µM
TGI [26]: 20.4 µM
TGI [27]: > 100 µM
TGI [28]: 99.1 µM
TGI [29]: > 100 µM
TGI [30]: > 100 µM
TGI [31]: 62.1 µM
TGI [32]: > 100 µM
TGI [33]: > 100 µM
TGI [34]: > 100 µM
TGI [35]: > 100 µM
TGI [36]: > 100 µM
TGI [37]: 23.9 µM
TGI [38]: > 100 µM
TGI [39]: 58.1 µM
TGI [40]: > 100 µM
TGI [41]: 31 µM
TGI [42]: > 100 µM
TGI [43]: > 100 µM
TGI [44]: 74.2 µM
TGI [45]: > 100 µM
TGI [46]: > 100 µM
TGI [47]: > 100 µM
TGI [48]: > 100 µM
TGI [49]: 34.7 µM
TGI [50]: > 100 µM
TGI [51]: > 100 µM
TGI [52]: 92.9 µM
TGI [53]: 44.6 µM
TGI [54]: 91.7 µM
TGI [55]: 47.2 µM
TGI [56]: 82.1 µM

O=C(CCc1nc(=S)[nH][nH]1)Nc1ccc(Cl)c(Cl)c1
TGI [2]: > 100 µM
TGI [3]: > 100 µM
TGI [4]: > 100 µM
TGI [5]: > 100 µM
TGI [6]: > 100 µM
TGI [57]: > 100 µM
TGI [7]: > 100 µM
TGI [8]: > 100 µM
TGI [9]: > 100 µM
TGI [10]: > 100 µM
TGI [11]: > 100 µM
TGI [12]: > 100 µM
TGI [13]: > 100 µM
TGI [14]: > 100 µM
TGI [58]: > 100 µM
TGI [59]: > 100 µM
TGI [15]: > 100 µM
TGI [16]: > 100 µM
TGI [17]: > 100 µM
TGI [18]: 72.1 µM
TGI [20]: > 100 µM
TGI [21]: > 100 µM
TGI [22]: 55.9 µM
TGI [23]: > 100 µM
TGI [24]: > 100 µM
TGI [25]: > 100 µM
TGI [26]: 22 µM
TGI [27]: > 100 µM
TGI [28]: > 100 µM
TGI [29]: > 100 µM
TGI [30]: > 100 µM
TGI [31]: > 100 µM
TGI [32]: > 100 µM
TGI [33]: > 100 µM
TGI [34]: 31.2 µM
TGI [35]: 65.6 µM
TGI [36]: > 100 µM
TGI [37]: > 100 µM
TGI [38]: > 100 µM
TGI [39]: > 100 µM
TGI [40]: > 100 µM
TGI [41]: > 100 µM
TGI [42]: > 100 µM
TGI [43]: > 100 µM
TGI [44]: > 100 µM
TGI [45]: 31.6 µM
TGI [46]: > 100 µM
TGI [47]: 75.5 µM
TGI [48]: > 100 µM
TGI [49]: > 100 µM
TGI [50]: > 100 µM
TGI [51]: > 100 µM
TGI [52]: > 100 µM
TGI [54]: > 100 µM
TGI [55]: > 100 µM
TGI [56]: > 100 µM

Cc1c(C(=O)C/C(=N/NC(=O)c2ccccc2O)C(=O)Nc2ccccc2C(C)C)[n+](=O)c2ccccc2n1[O-]
TGI [1]: > 100 µM
TGI [3]: 28.8 µM
TGI [4]: > 100 µM
TGI [5]: > 100 µM
TGI [6]: > 100 µM
TGI [57]: 38.3 µM
TGI [7]: > 100 µM
TGI [8]: > 100 µM
TGI [9]: > 100 µM
TGI [10]: > 100 µM
TGI [11]: > 100 µM
TGI [12]: > 100 µM
TGI [13]: > 100 µM
TGI [14]: 21.9 µM
TGI [59]: > 100 µM
TGI [15]: > 100 µM
TGI [16]: > 100 µM
TGI [18]: 65.8 µM
TGI [19]: > 100 µM
TGI [20]: > 100 µM
TGI [21]: > 100 µM
TGI [22]: > 100 µM
TGI [23]: > 100 µM
TGI [24]: > 100 µM
TGI [25]: > 100 µM
TGI [26]: 77.7 µM
TGI [27]: > 100 µM
TGI [28]: > 100 µM
TGI [29]: > 100 µM
TGI [30]: > 100 µM
TGI [31]: > 100 µM
TGI [33]: 60.8 µM
TGI [34]: 8.81 µM
TGI [35]: > 100 µM
TGI [36]: > 100 µM
TGI [37]: > 100 µM
TGI [38]: > 100 µM
TGI [39]: > 100 µM
TGI [40]: > 100 µM
TGI [41]: > 100 µM
TGI [42]: > 100 µM
TGI [43]: > 100 µM
TGI [44]: > 100 µM
TGI [45]: > 100 µM
TGI [46]: > 100 µM
TGI [47]: > 100 µM
TGI [48]: > 100 µM
TGI [49]: > 100 µM
TGI [50]: > 100 µM
TGI [51]: > 100 µM
TGI [53]: > 100 µM
TGI [54]: > 100 µM
TGI [55]: 52.8 µM
TGI [56]: > 100 µM
